Results published in ChEMBL document CHEMBL1201862, “PubChem BioAssay data set” (2004).
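Test compounds were applied to cells in 96-well plates for 48 hours at 5 doses. GI50 is the concentration that inhibits growth by half.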 The source made the active and inactive calls. Rule as the data show it: active = GI50 up to about 1.1 µM and inactive = higher.

What was measured:
Experiment in all cases: inhibition of tumour cell growth, NCI panel, 48 h
DLD-1 = test system: DLD-1
DMS-273 = test system: DMS-273
HOP-18 = test system: HOP-18
KM-20L2 = test system: KM-20L2
LXFL 529 = test system: LXFL 529
M19-MEL = test system: M19-MEL
XF498 = test system: XF498
RXF 631 = test system: RXF 631
BT-549 = test system: BT-549

Measured: GI50

N#C/C(=C\c1ccc(CP(=O)(O)O)cc1)C(N)=O
inactive: DLD-1 > 100 µM | DMS-273 > 100 µM | HOP-18 > 100 µM | KM-20L2 > 100 µM | LXFL 529 > 100 µM | M19-MEL > 100 µM | XF498 > 100 µM

CCOC(=O)c1ccc(/N=N\c2ccc(N(CCC#N)CCC#N)cc2C)cc1
inactive: DLD-1 > 100 µM | DMS-273 > 100 µM | HOP-18 51.6 µM | LXFL 529 35.9 µM | M19-MEL > 100 µM | RXF 631 > 100 µM

O=C1c2ccccc2C(=O)N1CCCOCc1cnc(O)nc1O
inactive: DLD-1 > 100 µM | DMS-273 > 100 µM | HOP-18 > 100 µM | KM-20L2 > 100 µM | LXFL 529 > 100 µM | M19-MEL > 100 µM | RXF 631 > 100 µM | XF498 > 100 µM

Cc1cccc(C)c1NC(=O)C(=O)C(C(=O)c1ccccc1-c1ccccc1)C1OC(=O)c2ccccc21 (stereo unspecified)
inactive: DLD-1 17.5 µM | KM-20L2 28.8 µM | LXFL 529 13.5 µM | M19-MEL 15.6 µM | RXF 631 31.8 µM | XF498 15.9 µM

COc1ccc([C@@H]2C[C@@H]3C(=O)OC(=O)[C@@H]3c3c2c2ccccc2n3C)cc1
inactive: DLD-1 > 100 µM | DMS-273 > 100 µM | LXFL 529 > 100 µM | M19-MEL > 100 µM | RXF 631 > 100 µM | XF498 > 100 µM

CCC(O)CCCCCCCCCCCCCCC(=O)O (stereo unspecified)
inactive: DLD-1 > 100 µM | DMS-273 > 100 µM | HOP-18 > 100 µM | LXFL 529 > 100 µM | M19-MEL > 100 µM | RXF 631 78.3 µM | XF498 > 100 µM

CC(N)C(C)c1ccccc1 (stereo unspecified)
inactive: DLD-1 > 100 µM | DMS-273 > 100 µM | HOP-18 > 100 µM | KM-20L2 > 100 µM | LXFL 529 > 100 µM | XF498 > 100 µM

Nc1c(-c2ccc(Cl)cc2)[n+]([O-])c2ccccc2[n+]1[O-]
inactive: DLD-1 88.7 µM | DMS-273 > 100 µM | HOP-18 20.7 µM | KM-20L2 > 100 µM | LXFL 529 52.7 µM | M19-MEL > 100 µM | XF498 42.7 µM

Cc1cc(NS(=O)(=O)c2ccc(NC(=O)c3cccc4c(Nc5ccc(S(=O)(=O)Nc6cc(C)on6)cc5)c5ccc(Cl)cc5nc34)cc2)no1
inactive: DLD-1 63.2 µM | DMS-273 85.1 µM | HOP-18 14.9 µM | KM-20L2 74.1 µM | LXFL 529 43.2 µM | M19-MEL 41.9 µM | XF498 56.6 µM

C/C(=N/O)C1CC=C(S(=O)(=O)c2ccccc2)C1 (stereo unspecified)
inactive: DLD-1 > 100 µM | DMS-273 > 100 µM | KM-20L2 > 100 µM | LXFL 529 > 100 µM | M19-MEL > 100 µM

CCOC(=O)c1ccc(NC(=O)SCCC(=O)O)cc1
inactive: DLD-1 > 100 µM | DMS-273 > 100 µM | KM-20L2 > 100 µM | LXFL 529 69 µM

COC(=O)C(C(=O)OC)C1CCCC(=O)C1 (stereo unspecified)
inactive: DLD-1 > 100 µM | DMS-273 > 100 µM | HOP-18 > 100 µM | KM-20L2 > 100 µM | LXFL 529 > 100 µM | M19-MEL > 100 µM | XF498 > 100 µM

CN(C)c1ccc(C(C#N)NNC(=O)Cc2ccccc2)cc1 (stereo unspecified)
inactive: DLD-1 > 100 µM | DMS-273 > 100 µM | HOP-18 > 100 µM | KM-20L2 > 100 µM | LXFL 529 > 100 µM | M19-MEL > 100 µM

CC[N+](CC)(CC)Cc1cn(S(=O)(=O)c2ccccc2)c2ccccc12
inactive: DLD-1 > 100 µM | DMS-273 > 100 µM | KM-20L2 > 100 µM | M19-MEL > 100 µM | XF498 > 100 µM

[N-]=[N+]=Nc1ccccc1Oc1ccccc1
inactive: DLD-1 > 100 µM | DMS-273 > 100 µM | KM-20L2 > 100 µM | LXFL 529 > 100 µM | M19-MEL > 100 µM | XF498 > 100 µM

COC(=O)C1=CC(=O)C(C(=O)Nc2ccc(OC)cc2)C(c2ccccc2)O1 (stereo unspecified)
inactive: DLD-1 > 75.5 µM | DMS-273 37.5 µM | KM-20L2 > 78.2 µM | LXFL 529 25.9 µM | RXF 631 37.2 µM

CC(C)(C)C1CCC2c3c([nH]c4ncccc34)C3C(=O)N(c4ccccc4)C(=O)C3C2C1 (stereo unspecified)
inactive: DLD-1 > 100 µM | DMS-273 > 100 µM | HOP-18 > 100 µM | KM-20L2 > 100 µM | LXFL 529 > 100 µM | M19-MEL > 100 µM | XF498 > 100 µM

CCCCCCCCCCCCCC/C(C(=O)OC)=C(/O)C(=O)OCC
inactive: DLD-1 30.5 µM | DMS-273 94 µM | HOP-18 27.6 µM | LXFL 529 39.3 µM | M19-MEL 54.8 µM | RXF 631 33 µM | XF498 20.4 µM

CCOC(=O)c1cnc2c(ccc3ncccc32)c1OCC
inactive: DLD-1 77.3 µM | DMS-273 > 100 µM | HOP-18 > 100 µM | KM-20L2 > 100 µM | LXFL 529 > 100 µM | M19-MEL > 100 µM | RXF 631 84.5 µM

O=C1NC2C(CCO)CC=C[C@H]2c2cc3c(cc21)OCO3 (stereo partly specified)
inactive: DLD-1 > 100 µM | DMS-273 > 100 µM | KM-20L2 > 100 µM | LXFL 529 > 100 µM | M19-MEL > 100 µM

C=C1[C@H](OCC(C)C)[C@@H](OC(=O)C(C)CC)[C@@H](O)C(C)(C)/C=C/[C@H](C)C(=O)[C@@]2(O)C[C@H](C)[C@H](O)[C@@H]2[C@H]1OC(=O)C(C)CC (stereo partly specified)
inactive: BT-549 4.63 µM

NC1=NCCC1(c1ccccc1)c1ccccn1 (stereo unspecified)
inactive: DMS-273 > 100 µM | HOP-18 > 100 µM | KM-20L2 > 100 µM | LXFL 529 > 100 µM | M19-MEL > 100 µM | XF498 > 100 µM

Nc1nc(O)c(N)c(NCCOCP(=O)(O)O)n1
inactive: BT-549 > 74.8 µM

N#CC(c1ccccc1)(c1ccccc1)[C@@H](c1ccccc1)[C@H](Cc1ccccc1)NS(=O)(=O)c1ccccc1
inactive: BT-549 > 100 µM

COC1C(O)C(O[C@H]2CC[C@@]3(C)C(CC[C@@H]4[C@@H]3CC[C@]3(C)[C@@H](C(C)OC5OC(CO)C(O)C(O)C5O)CC[C@]43O)C2)OC(C)C1OC1OC(CO)C(O)C(O)C1O (stereo partly specified)
inactive: BT-549 > 100 µM

NC1=NC2=C(CCCC2)C(c2cccs2)S1 (stereo unspecified)
inactive: DMS-273 > 100 µM | HOP-18 33.5 µM | KM-20L2 > 100 µM | LXFL 529 > 100 µM | M19-MEL > 100 µM | XF498 > 100 µM

COC(=O)c1sc2c(=O)c(C(=O)OC)c(C(=O)OC)sc2c(=O)c1C(=O)OC
inactive: BT-549 > 100 µM

CC(C)(C)NC(=O)C12C3C4C1C1C2C3C41I (stereo unspecified)
inactive: DMS-273 > 100 µM | KM-20L2 > 100 µM | LXFL 529 > 100 µM | M19-MEL > 100 µM | RXF 631 > 100 µM | XF498 > 100 µM

Cc1cccc(NC2=NC(=O)C(CC(=O)Nc3ccc(Cl)cc3C)S2)c1 (stereo unspecified)
inactive: DLD-1 > 100 µM | DMS-273 > 100 µM | HOP-18 > 100 µM | KM-20L2 > 100 µM | LXFL 529 > 100 µM | M19-MEL > 100 µM | RXF 631 > 100 µM

O=c1c(Br)cc2nc3ccccc3sc-2c1Br
inactive: DLD-1 > 100 µM | DMS-273 > 100 µM | KM-20L2 > 100 µM | LXFL 529 28.1 µM | M19-MEL 17.5 µM | RXF 631 > 100 µM | XF498 27.2 µM

Nc1ncn2c(n1)nc1ccccc12
inactive: BT-549 > 100 µM

NS(=O)(=O)c1ccc(NC(=O)Nc2cccc3ccccc23)cc1
inactive: BT-549 87.1 µM

Cc1cc(=O)n2c(cc3cccccc32)n1
inactive: DMS-273 > 100 µM | KM-20L2 > 100 µM | LXFL 529 > 100 µM
